Results taken from publication PMC5639602, “Role of microglial amylin receptors in mediating beta amyloid (Aβ)-induced inflammation” (Journal of Neuroinflammation, 2017).
“Also recorded” adds a separate entry of the source. Ends that are not written are not given here.

Experiments:
AMY1 = assay: cAMP in-cell Western, AMY1-expressing HEK293 cells; assay type: cell-based; details: 5 min
Source text: (§1) In order to characterize the antagonist activity of cAC253 at subtypes of amylin receptors, we compared hAmylin-generated cAMP responses in stably expressed AMY1, AMY2, and AMY3 and CTR receptors in HEK293 cells and wild-type HEK (HEK-WT) cells (Additional file 1).
(§2) For in-cell Western blot cyclic adenosine monophosphate (cAMP) quantification, mouse monoclonal anti-cAMP (R&D Systems) was used as a primary antibody and IRDye 700 goat anti mouse antibody (LI-COR) was used as a secondary antibody. Plates were imaged using an Odyssey Infrared Imaging System (LI-COR), and the integrated intensity was normalized to the total cell number on the same well as previously described.
(§3) Amylin receptor subtypes stably expressed in human embryonic kidney (HEK293) cell-line were generated and characterized as described in a previous published article from our laboratory ( Fu et al., J. Biol. Chem. 2012). […]
(§4) The in-cell Western blot cyclic adenosinemonophosphate (cAMP) quantification was used as previously described (Fu et al., J Biol Chem. 2012). […] The cAMP was measured at 5 min after treatment, i.e., at 5 min after different concentration of hAmylin and/or cAC253 treatment, cells were fixed with 4% paraformaldehyde in PBS for 10 min. […] Plates were imaged using an Odyssey Infrared Imaging System (LI-COR), and the integrated intensity was measured. […]

[1] = tested on: HEK wild-type control cells; assay: cAMP in-cell Western, wild-type HEK cells; assay type: cell-based, human; details: 5 min
Source text: as §1, §2
The in-cell Western blot cyclic adenosinemonophosphate (cAMP) quantification was used as previously described (Fu et al., J Biol Chem. 2012). Briefly, amylin receptor stable cells were plated at a density of 4x10^4 cells/well in a 96-well plate and cultured for 24 hours. On the day of experiment, culture media was replaced with serum free DMEM medium and further incubate for 6 h before treatment. The cAMP was measured at 5 min after treatment, i.e., at 5 min after different concentration of hAmylin and/or cAC253 treatment, cells were fixed with 4% paraformaldehyde in PBS for 10 min. […] Plates were imaged using an Odyssey Infrared Imaging System (LI-COR), and the integrated intensity was measured. […]

CTR = assay: cAMP in-cell Western, CTR-expressing HEK293 cells; assay type: cell-based; details: 5 min
Source text: as §1, §2, §3, §4

[2] = tested on: cytokine gene expression in HFM; assay: Cytokine RT-PCR array in human fetal microglia; assay type: cell-based; details: 1 μM, 6 h, vs untreated
Description: The PCR array for TNFα, IL1β, and IL23 gene expression used the RT^2 Profiler PCR Array system (96-well assay plate, SABiosciences) following product instruction. […] RNA was isolated with Rneasy Mini kit (Qiagen) as per the product instructions. For each PCR Array, 4 μg of total RNA were used to prepare cDNA with the appropriate first strand kit from SABiosciences. The cDNA was characterized on the iCycler® iQ Real-Time PCR System (Bio-Rad Laboratories) using the RT2 Profiler PCR Arrays. The resulting raw data were then analyzed using the PCR Array Data Analysis Template and expressed as gene expression fold-change after treatment compared to the control untreated HFM cultures.

caspase-1 in BV2 cells = assay: Caspase-1 expression in BV2 cells; assay type: cell-based, mouse
Description: (§5) Two different types of microglial, primary cultures of human fetal microglia and mouse microglial BV2 cell line, were used for in vitro testing of amylin receptor function. This approach provided confirmation of the presence of microglial amylin receptors across species and cross-validated our observations on the function of amylin receptors in both primary cell cultures and a frequently used cell line. Primary mixed glial cultures were prepared from 12- to 15-gestational-week fetuses as previously reported. Briefly, the meninges and blood vessels were removed and the brain tissue was washed in minimum essential medium and mechanically dissociated by repeated trituration through a 20-gauge needle. Cells were centrifuged at 1500g for 10 min and re-suspended in minimum essential medium with 10% fetal bovine serum. The cultures were grown in a 5% CO2 humidified incubator at 37 °C. […]
(§6) For cultured cell immunofluorescent staining, cells were plated on Lab-TEK chamber slide (ThermoFisher) and fixed with 4% paraformaldehyde (PAF) in PBS, then permeabilized with 0.3% Triton X-100 in PBS and blocked with 2% BSA + 10% goat serum for 1 h. […] Fluorescent microscopy images were acquired with an Axioplan-2 fluorescence microscope with AxioVision software (Carl Zeiss Ltd., Toronto, ON, Canada).

AMY2 = assay: cAMP in-cell Western, AMY2-expressing HEK293 cells; assay type: cell-based; details: 5 min
Source text: as §1, §2, §3, §4

[3] = tested on: human fetal microglia (HFM); amylin receptor; assay: Intracellular Ca2+ imaging (Fluo-8L-AM, confocal) in human fetal microglia; assay type: cell-based; details: 1 μM
Description: Two different types of microglial, primary cultures of human fetal microglia and mouse microglial BV2 cell line, were used for in vitro testing of amylin receptor function. […] Primary mixed glial cultures were prepared from 12- to 15-gestational-week fetuses as previously reported [21, 22]. Briefly, the meninges and blood vessels were removed and the brain tissue was washed in minimum essential medium and mechanically dissociated by repeated trituration through a 20-gauge needle. Cells were centrifuged at 1500g for 10 min and re-suspended in minimum essential medium with 10% fetal bovine serum. The cultures were grown in a 5% CO2 humidified incubator at 37 °C. After mixed glial cultures were completely confluent, human fetal microglia (HFM) were isolated by shaking flasks at 100 rpm (IKA KS-260, IKA Works, Wilmington, NC) for 1 h at 37 °C. The media was then collected and centrifuged at 2500 RCF for 5 min at 4 °C. Cell pellets were re-suspended in microglia plating media (MEM + 10% FBS + 1% penicillin/streptomycin). HFM were plated at a 2 × 10^5 cells per milliliter density, and microglia were allowed to attach overnight before further use for experiments. […] For all in vitro experiments, primary human fetal microglial cultures and BV2 cell cultures, each experiment was performed on a fresh batch of cell cultures and repeated a minimum of four times. Statistical analysis was performed on mean data.
Ca^2+ concentration were monitored with confocal microscopy as described previously [23, 24]. Briefly, HFMs were plated on glass coverslips pre-coated with poly-L-ornithine and incubated at 37 °C for 12–36 h. Then, incubated with 5 μM of membrane-permeant fluorescent Ca^2+-sensitive dye Fluo-8L-AM (AAT Bioquest, Inc., Sunnyvale, CA) for 40 min at room temperature (20–23 °C) within < 2 h before imaging. For Ca^2+ imaging, the superfusate of ion content similar to extracellular brain fluid thus contain the following: 130 mM NaCl, 4 mM KCl, 1 mM MgCl2, 2 mM CaCl2, 10 mM HEPES, and 10 mM glucose (pH 7.35) was applied at a rate of 3 ml/min using a roller pump (Watson-Marlow Alitea, Sin-Can, Calgary, AB, Canada). […] Fluorescence intensity was monitored with a FV-300 laser-scanning confocal microscope (Olympus FV300, Markham, Ontario, Canada) equipped with an argon laser (488 nm) and excitation/emission filters (FF02-520/28-25; Semrock, Inc.) for an emission wavelength at 514 nm, measured with a numerical aperture of 0.95 20× XLUMPlanF1 objective (Olympus). Images were acquired at scan rates of 1.25–1.43 per second using a 2–3× digital zoom at full-frame (512 × 512 pixel) resolution. Regions of interest were drawn around distinct cell bodies, and analysis of time courses of change in fluorescence intensity were generated with FluoView software (version 4.3; Olympus). […]

AMY3 = assay: cAMP in-cell Western, AMY3-expressing HEK293 cells; assay type: cell-based; details: 5 min
Source text: as §1, §2, §3, §4

AMY3 receptor subtype = details: ref [23]; cited from earlier work
Source text: (§7) As a neuroendocrine hormone, amylin mediates glycemic regulation, energy balance control, and cognitive/motivational processes. Human amylin also modulates autoimmunity and innate inflammation through regulatory T cells. Amyloid precursor protein (APP) and Aβ interact with variety of G-protein-coupled receptors (GPCRs) including amylin receptors. Amylin receptors (AMYs) are a dimerized calcitonin receptor (CTR) with receptor activity-modifying proteins (RAMPs) and belong to class B GPCRs. We have previously shown that hAmylin and Aβ preferentially activate AMY3 recep ...

[4] = tested on: hippocampal long-term potentiation; details: ref [20], [39]; cited from earlier work
Source text: as §7

[5] = tested on: NLRP3 in human fetal microglial (HFM) cultures; assay: NLRP3 immunostaining in human fetal microglia; assay type: cell-based; details: vs basal
Description: Two different types of microglial, primary cultures of human fetal microglia and mouse microglial BV2 cell line, were used for in vitro testing of amylin receptor function. This approach provided confirmation of the presence of microglial amylin receptors across species and cross-validated our observations on the function of amylin receptors in both primary cell cultures and a frequently used cell line. Primary mixed glial cultures were prepared from 12- to 15-gestational-week fetuses as previously reported. Briefly, the meninges and blood vessels were removed and the brain tissue was washed in minimum essential medium and mechanically dissociated by repeated trituration through a 20-gauge needle. Cells were centrifuged at 1500g for 10 min and re-suspended in minimum essential medium with 10% fetal bovine serum. The cultures were grown in a 5% CO2 humidified incubator at 37 °C. After mixed glial cultures were completely confluent, human fetal microglia (HFM) were isolated by shaking flasks at 100 rpm (IKA KS-260, IKA Works, Wilmington, NC) for 1 h at 37 °C. The media was then collected and centrifuged at 2500 RCF for 5 min at 4 °C. Cell pellets were re-suspended in microglia plating media (MEM + 10% FBS + 1% penicillin/streptomycin). HFM were plated at a 2 × 10^5 cells per milliliter density, and microglia were allowed to attach overnight before further use for experiments. BV2 cells (kindly provided by Dr. T. Trang, University of Calgary) were cultured in DMEM/F12 media with 10% FBS. For all in vitro experiments, primary human fetal microglial cultures and BV2 cell cultures, each experiment was performed on a fresh batch of cell cultures and repeated a minimum of four times. […]
as §6

caspase-1 in HFM = assay: Caspase-1 expression, fluorometric assay, human fetal microglia; assay type: cell-based
Description: as §5, §6

transgenic AD mice = details: systemic administration, ref [40], [41]; cited from earlier work
Source text: as §7

BV2 cells = assay: Aβ uptake and plaque-like structure formation in BV2 cells (thioflavin S); assay type: cell-based, mouse; details: BV2, 1 μM, 24 h, thioflavin S staining
Description: as §5, §6

hAmylin: human amylin, the endogenous peptide that binds to the amylin receptor; purchased from American Peptide (KCNTATCATQRLANFLVHSSNNFGAILSSTNVGSNTY; not fully specified (C-terminus, bridges); cysteine pairing not given here; UniProt P10997 34-70, looked up)
Receptor activation (cAMP) (AMY1): activated
cAMP response [1]: not significantly
Receptor activation (cAMP) (CTR): not significantly
IL1β gene expression [2]: increases
TNFα gene expression [2]: increases
Caspase-1 expression (caspase-1 in BV2 cells): increased
Receptor activation (cAMP) (AMY2): not significantly
Time of return of Ca2+ to base line ([3]; 30 s application): ≤ 2 min
Time to Ca2+ increase after entry of the peptide into the imaging chamber ([3]; 30 s application): ≤ 1 min
Intracellular Ca2+ change ([3]; bath application 30 s, Fluo-8, pooled n = 123 HFM in 12 culture wells, four batches): robust Ca^2+ increase
Receptor activation (cAMP) (AMY3): activated
Activation of AMY3 receptor subtype with downstream MAPK and Akt signaling (AMY3 receptor subtype): preferentially activate AMY3 receptor subtype
Effect on hippocampal long-term potentiation [4]: depression of hippocampal long-term potentiation
NLRP3 level [5]: increased significantly; also recorded: Increased activation of the inflammasome, NLRP3
Caspase-1 expression (caspase-1 in HFM): increased

pramlintide
Amyloid burden in the brain (transgenic AD mice): reduce amyloid burden in the brain
Efflux of Aβ across the blood brain barrier (transgenic AD mice): promoting an efflux of Aβ across the blood brain barrier
Effect on hAmylin- and Aβ-induced depression of hippocampal long-term potentiation [4]: attenuate

Aβ1–42: soluble oligomeric amyloid beta 1–42 peptide from rPeptide
Uptake of Aβ1–42 and formation of plaque-like structures (BV2 cells): uptake of the peptide into the microglia and formation of plaque-like structures on the cell surface; also recorded: taken up into the cells and formed plaque-like structures
IL1β gene expression [2]: increases
TNFα gene expression [2]: increases
Caspase-1 expression (caspase-1 in BV2 cells): increased
Time to Ca2+ increase after entry of the peptide into the imaging chamber ([3]; 30 s application): ≤ 1 min
Activation of AMY3 receptor subtype with downstream MAPK and Akt signaling (AMY3 receptor subtype): preferentially activate AMY3 receptor subtype
Effect on hippocampal long-term potentiation [4]: depression of hippocampal long-term potentiation
NLRP3 level [5]: Increased activation of the inflammasome, NLRP3
NLRP3 level ([5]; listed as Aβ): increased significantly
Caspase-1 expression (caspase-1 in HFM): increased
